Measured values as given in patent publication US20140315738A1, “MARINE MEDAKA GENES RESPONDING TO THE EXPOSURE OF ENDOCRINE-DISRUPTING CHEMICALS, AND METHOD FOR DIAGNOSING AN AQUATIC ECO-SYSTEM CONTAMINATION USING SAME” (priority 2011, published 2014).

Tested on: Javanese medaka (Oryzias javanicus) livers
Type: in vivo
Settings: 76 μg/L, 48 hr, liver
Description: Javanese medaka was cultured in natural seawater filtered through three types of filters (10, 10 and 1 μm). Water temperature was fixed at 25° C. with underwater heater, and Artemia salina nauplii were fed once a day.
To 3 L beaker with 2 L filtered seawater therein, 10 male Javanese medaka bred in culture water tank were transported each time, and acclimated for 24 hr. […] Additionally, five Javanese medaka of Example <1-1> were exposed to BPA (76 μg/L) for 48 hr. […] The Javanese medaka was transported to ice water, one at a time, which momentarily stunned it, followed by beheading and evisceration and liver removal.
To the Javanese medaka livers of BPA exposed group (48 hr) produced from Example <1-2>, and of control group without exposure, 1 ml of TRI Reagent solution (Molecular Research Center Inc, Cincinnati, Ohio, USA) was added, homogenized with glass homogenizer, and left at room temperature for 5 min. Next, chloroform (200 μl) was added and mixed, left at room temperature for 10 min. After centrifugation for 15 min (12,000×g, 4° C.), supernatant was obtained, to which isopropanol (500 μl) was added and left at room temperature for 5 min. After centrifugation for about 20 min (12,000×g, 4° C.), solution was removed, thus leaving precipitate. To the precipitate, 70% ethanol solution (50 μl) was added and after centrifugation for 5 min, ethanol solution was removed, and the precipitate RNA was dried. After drying, the product was dissolved in appropriate amount of DEPC (diethylpyrocarbonate)-treated water.
The entire RNA of the distilled exposed group and non-exposed group were labeled with Cy3 and Cy5 as follows, using Agilent's Low RNA Input Linear Amplification Kit Plus (Agilent Technologies, USA). To be specific, RNA (1 μg) was mixed with dT-promoter primer and MMLV-Reverse transcriptase. After reverse transcription at 40° C. for 2 hr, T7 polymerase was added, and linear amplification was done at 40° C. for 2 hr. After the amplification process explained above, the samples of experimental and control groups were labeled with Cy3-CTP and Cy5-CTP, respectively.
Fluorescent-labeled cDNA sample was purified with Qiagen PCR purification kit, and eluted with distilled water. The purified, fluorescent-labeled cDNA sample was added to hybridization buffer (3×SSC, 0.3% SDS, 50% formamide, 20 μg Cot-1 DNA, 20 μg yeast tRNA), and concentrated with microcon YM-30. After hybridization, the hybridized compound was heated at 95° C. for 3 min for denaturization, and the temperature of the heated, hybridized compound was decreased by centrifugation for 30 sec at 12,000 g. The produced Javanese medaka cDNA microarray was covered with coverslip, and the denaturized, hybridized compound was pipetted. The microarray was put into GT-Hyb chamber for reaction to occur at 65° C. for 16 hr. After hybridization, the microarray was taken out of the chamber, underwent cleansing process as explained below, rotated and dried, and stored in a dark room until scanning. The Javanese medaka microarray was then scanned with Axon GenePix 4000B scanner (Axon Instrument, USA). On the GenePix Pro 6.0 program, dots from the scanned image were gridded using gridding file, and quantified to produce GPR file including analysis on cy5/Cy3 magnitudes and ratios.
Based on the GPR file obtained with the GenePix Pro Program, the following analysis was made using analysis program, i.e., GeneSpring 7.3.1 (Agilent Technologies, USA). Normalization: by LOWESS (locally weighted regression scatterplot smoothing). Reliable gene): significant genes were obtained by flagging out dots whose sums of medial values were less than the background, or dots whose standard deviations of pixel values are not significant. Significant genes: dots whose normalized ratio is at […] higher interval, were screened. […]

[1] = Down-regulation, + = increased expression level
[2] = Up-regulation, − = decreased expression level

SMILES: CC(C)(c1ccc(O)cc1)c1ccc(O)cc1 [BPA, Bisphenol A]
- Fold difference, 40S ribosomal protein S19 (No. 115) [1]: +2.00 fold
- Fold difference, ATP citrate lyase (ACLY), transcript variant 2 (No. 154) [1]: +2.84 fold
- Fold difference, ATP-binding cassette transporter sub-family G member 2b (No. 146) [1]: +2.59 fold
- Fold difference, GTP cyclohydrolase 1 precursor (No. 148) [1]: +2.60 fold
- Fold difference, Iron-responsive element-binding protein 1 (No. 141) [1]: +2.25 fold
- Fold difference, Isocitrate dehydrogenase (No. 153) [1]: +2.72 fold
- Fold difference, NADH dehydrogenase subunit 4 (No. 126) [1]: +2.08 fold
- Fold difference, Nedd4 family interacting protein 2 (No. 132) [1]: +2.13 fold
- Fold difference, Restin (Cytoplasmic linker protein-170 alpha-2) (No. 133) [1]: +2.14 fold
- Fold difference, Ribosomal protein S14, transcript variant 4 (No. 158) [1]: +3.11 fold
- Fold difference, TBT-binding protein (No. 120) [1]: +2.02 fold
- Fold difference, Thyroid hormone receptor-associated protein complex 150 kDa component (No. 149) [1]: +2.62 fold
- Fold difference, Transforming growth factor-beta-induced protein ig-h3 (No. 114) [1]: +2.00 fold
- Fold difference, Translation initiation factor eIF-2B subunit epsilon (No. 157) [1]: +3.00 fold
- Fold difference, Transmembrane protein 85 (No. 159) [1]: +5.22 fold
- Fold difference, adult alpha-type globin (No. 147) [1]: +2.59 fold
- Fold difference, alcohol dehydrogenase Class VI (ADH8) (No. 116) [1]: +2.01 fold
- Fold difference, alpha-2-macroglobulin (No. 119) [1]: +2.01 fold
- Fold difference, alpha-2-macroglobulin-2 (No. 123) [1]: +2.03 fold
- Fold difference, apolipoprotein A-IV4 (No. 156) [1]: +2.94 fold
- Fold difference, arginyl-tRNA synthetase (No. 145) [1]: +2.52 fold
- Fold difference, calreticulin (No. 142) [1]: +2.25 fold
- Fold difference, carboxyl ester lipase, tandem duplicate 2 (No. 118) [1]: +2.01 fold
- Fold difference, catalase (No. 135) [1]: +2.16 fold
- Fold difference, choriogenin L (No. 130) [1]: +2.12 fold
- Fold difference, chymotrypsinogen 2-like protein (No. 140) [1]: +2.22 fold
- Fold difference, complement component C9 (No. 122) [1]: +2.03 fold
- Fold difference, complement factor B/C2-B (No. 131) [1]: +2.12 fold
- Fold difference, complement regulatory plasma protein (No. 128) [1]: +2.11 fold
- Fold difference, cyclin B2 (No. 152) [1]: +2.66 fold
- Fold difference, cyclin Y-like 1 (No. 127) [1]: +2.09 fold
- Fold difference, decorin mRNA (No. 155) [1]: +2.87 fold
- Fold difference, delta 6-desaturase (No. 143) [1]: +2.39 fold
- Fold difference, glutathione S transferase Rho-class (No. 162) [1]: +6.90 fold
- Fold difference, heat shock protein 84b (No. 160) [1]: +5.53 fold
- Fold difference, hepcidin-like precursor (No. 125) [1]: +2.07 fold
- Fold difference, hypoxanthine phosphoribosyltransferase 1 (No. 138) [1]: +2.17 fold
- Fold difference, kelch domain containing 10 (No. 144) [1]: +2.42 fold
- Fold difference, kelch-like ECH-associated protein 1b (No. 124) [1]: +2.06 fold
- Fold difference, keratin 15 (No. 121) [1]: +2.02 fold
- Fold difference, malate dehydrogenase (No. 117) [1]: +2.01 fold
- Fold difference, ornithine decarboxylase antizyme large isoform ORF1 (No. 134) [1]: +2.15 fold
- Fold difference, protein kinase C and casein kinase substrate in neurons 2 (No. 129) [1]: +2.12 fold
- Fold difference, protein phosphatase 2A regulatory subunit B′ delta isoform (No. 151) [1]: +2.63 fold
- Fold difference, ring finger protein 141 (No. 136) [1]: +2.16 fold
- Fold difference, sex hormone-binding globulin (No. 150) [1]: +2.62 fold
- Fold difference, warm-temperature-acclimation-related-65 kDa-protein (C79) (No. 161) [1]: +5.88 fold
- Fold difference, 5,10-methylenetetrahydrofolate reductase (NADPH)-like mRNA (No. 106) [2]: −2.06 fold
- Fold difference, 40S ribosomal protein S18 (No. 89) [2]: −2.43 fold
- Fold difference, 60S acidic ribosomal protein P1 (No. 100) [2]: −2.13 fold
- Fold difference, ATPase, H+ transporting, lysosomal, V1 subunit E isoform 1 (No. 109) [2]: −2.04 fold
- Fold difference, DEAD-box RNA-dependent helicase p68 mRNA (No. 113) [2]: −2.01 fold
- Fold difference, Glycerol-3-phosphate dehydrogenase (No. 80) [2]: −3.03 fold
- Fold difference, HSPC038 protein (No. 79) [2]: −3.05 fold
- Fold difference, MHC Class I Region (No. 74) [2]: −3.70 fold
- Fold difference, Putative transmembrane 4 superfamily member protein (No. 111) [2]: −2.02 fold
- Fold difference, TRAF-binding protein (No. 78) [2]: −3.17 fold
- Fold difference, Transcription initiation factor IIA gamma chain (No. 108) [2]: −2.06 fold
- Fold difference, Uridine phosphorylase 1 (No. 99) [2]: −2.16 fold
- Fold difference, bromodomain containing 2 (RING3) gene (No. 92) [2]: −2.35 fold
- Fold difference, c-type lysozyme mRNA (No. 98) [2]: −2.18 fold
- Fold difference, carnitine O-acetyltransferase precursor (No. 83) [2]: −2.78 fold
- Fold difference, cathepsin F (No. 105) [2]: −2.08 fold
- Fold difference, choriogenin Hminor (No. 102) [2]: −2.09 fold
- Fold difference, cyclin G2 (No. 95) [2]: −2.27 fold
- Fold difference, cysteine dioxygenase (No. 94) [2]: −2.32 fold
- Fold difference, estrogen receptor beta 2 (No. 91) [2]: −2.37 fold
- Fold difference, eukaryotic peptide chain release factor GTP-binding subunit (No. 88) [2]: −2.45 fold
- Fold difference, glucose-regulated protein 94 (No. 104) [2]: −2.09 fold
- Fold difference, glutathione S-transferase (No. 93) [2]: −2.33 fold
- Fold difference, heart-type fatty acid-binding protein (No. 101) [2]: −2.12 fold
- Fold difference, leukocyte elastase inhibitor (No. 110) [2]: −2.04 fold
- Fold difference, mitogen-activated protein kinase 1 (No. 107) [2]: −2.06 fold
- Fold difference, mitogen-activated protein kinase (p38) (No. 112) [2]: −2.02 fold
- Fold difference, muscleblind mRNA (No. 85) [2]: −2.53 fold
- Fold difference, phosphoenolpyruvate carboxykinase (No. 86) [2]: −2.51 fold
- Fold difference, proline rich 6 (No. 71) [2]: −5.99 fold
- Fold difference, proteasome subunit, beta type 8 (No. 81) [2]: −2.96 fold
- Fold difference, protein kinase C and casein kinase substrate in neurons 1 (No. 96) [2]: −2.22 fold
- Fold difference, protein phosphatase 2 regulatory subunit B beta (No. 87) [2]: −2.50 fold
- Fold difference, protein tyrosine phosphatase-like, member b (No. 77) [2]: −3.23 fold
- Fold difference, retinoid X receptor beta (RXRB) gene (No. 76) [2]: −3.42 fold
- Fold difference, ribosomal protein L13 (No. 103) [2]: −2.09 fold
- Fold difference, septin 7b (sept7b), transcript variant 1 (No. 97) [2]: −2.20 fold
- Fold difference, telomerase reverse transcriptase gene (No. 72) [2]: −4.31 fold
- Fold difference, trypsinogen (No. 82) [2]: −2.88 fold
- Fold difference, trypsinogen (No. 90) [2]: −2.42 fold
- Fold difference, tubulin, beta 5 (No. 84) [2]: −2.56 fold
- Fold difference, uridine phosphorylase 2 (No. 73) [2]: −3.77 fold
- Fold difference, vitellogenin II (No. 75) [2]: −3.69 fold
